In ChEMBL document CHEMBL1833965, “A new N-methyl thymine derivative comprising a dihydroxyisobutenyl unit as ligand for thymidine kinase of herpes simplex virus type 1 (HSV-1 TK)” (Bioorg Med Chem Lett, 2011):
The source made the active and inactive calls. No cut-off for these calls is given here.

How the values were obtained:
MCF7 = assay: Antiproliferative activity against human MCF7 cells after 72 hrs by MTT assay; assay type: functional, cell-based; conditions: MCF7, 72 h
HeLa = assay: Antiproliferative activity against human HeLa cells after 72 hrs by MTT assay; assay type: functional, cell-based
WI-38 = assay: Antiproliferative activity against human WI38 cells after 72 hrs by MTT assay; assay type: cell-based; conditions: WI-38, 72 h
SW-620 = assay: Antiproliferative activity against human SW620 cells after 72 hrs by MTT assay; assay type: functional, cell-based; conditions: SW-620, 72 h
MIA PaCa-2 = assay: Antiproliferative activity against human MIAPaCa2 cells after 72 hrs by MTT assay; assay type: functional, cell-based; conditions: MIA PaCa-2, 72 h
HepG2 = assay: Antiproliferative activity against human HepG2 cells after 72 hrs by MTT assay; assay type: functional, cell-based; conditions: HepG2, 72 h
[1] = target: T1, Thymidine kinase, cytosolic (Homo sapiens) (UniProt P04183); assay: Activity of human 6xHis-tagged TK assessed as formation of ADP by HPLC analysis
T1 sequence (whole entry): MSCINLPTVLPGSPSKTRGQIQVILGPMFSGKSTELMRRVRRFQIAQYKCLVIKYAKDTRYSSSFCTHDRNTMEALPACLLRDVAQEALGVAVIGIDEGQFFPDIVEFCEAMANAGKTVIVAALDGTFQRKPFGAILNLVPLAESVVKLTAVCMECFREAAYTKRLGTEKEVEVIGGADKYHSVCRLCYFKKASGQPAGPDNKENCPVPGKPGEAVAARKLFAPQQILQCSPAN

[2] = target: T2, Thymidine kinase (Human alphaherpesvirus 1) (UniProt Q9QNF7); assay: Activity of HSV-1 GST-TK assessed as increase in ADP to ATP ratio at 1 mM after 30 mins
T2 sequence (whole entry): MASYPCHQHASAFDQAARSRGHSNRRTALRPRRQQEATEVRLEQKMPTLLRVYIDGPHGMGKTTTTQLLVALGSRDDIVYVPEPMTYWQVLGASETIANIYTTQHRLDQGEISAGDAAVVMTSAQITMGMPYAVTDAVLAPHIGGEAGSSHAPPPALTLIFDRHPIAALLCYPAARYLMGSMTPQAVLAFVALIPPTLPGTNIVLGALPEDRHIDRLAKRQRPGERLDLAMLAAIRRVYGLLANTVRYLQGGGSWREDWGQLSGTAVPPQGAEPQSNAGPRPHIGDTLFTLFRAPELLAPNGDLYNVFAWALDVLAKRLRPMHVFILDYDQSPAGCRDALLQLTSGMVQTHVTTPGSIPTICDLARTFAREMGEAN

[3] = target: T1, Thymidine kinase, cytosolic (Homo sapiens); assay: Activity of human 6xHis-tagged TK assessed as formation of compound-monophosphate by HPLC analysis
[4] = target: T1, Thymidine kinase, cytosolic (Homo sapiens); assay: Activity of human 6xHis-tagged TK assessed as effect on ADP to ATP ratio at 1 mM after 30 mins
[5] = target: T2, Thymidine kinase (Human alphaherpesvirus 1); assay: Activity of HSV-1 GST-TK assessed as formation of compound-monophosphate by HPLC analysis
[6] = target: T2, Thymidine kinase (Human alphaherpesvirus 1); assay: Activity of HSV-1 GST-TK assessed as formation of ADP by HPLC analysis

| SMILES | IC50 (MCF7) [µM] | IC50 (HeLa) [µM] | IC50 (WI-38) [µM] | IC50 (SW-620) [µM] | IC50 (MIA PaCa-2) [µM] | IC50 (HepG2) [µM] | Activity [1] | Activity [2] | Activity [3] | Activity [4] | Activity [5] | Activity [6] |
| --- | --- | --- | --- | --- | --- | --- | --- | --- | --- | --- | --- | --- |
| COc1nc(=O)n(C)c(CC(O)(COCc2ccccc2)COCc2ccccc2)c1C | 23.7 | 29.5 | 49.8 | 57.2 | 33.5 | 33.9 |  |  |  |  |  |  |
| COc1nc(=O)n(C)c(CC(F)(COC(C)=O)COC(C)=O)c1C | > 100 | > 100 | > 100 | > 100 | > 100 | > 100 |  |  |  |  |  |  |
| COc1nc(=O)n(C)c(CC(O)(CO)CO)c1C | > 100 | > 100 | > 100 | > 100 | > 100 | > 100 |  |  |  |  |  |  |
| COc1nc(CC(O)(COC(C)=O)COC(C)=O)c(C)c(OC)n1 | > 100 | > 100 | > 100 | > 100 | > 100 | > 100 |  |  |  |  |  |  |
| CC(=O)OCC(O)(COC(C)=O)Cc1c(C)c(=O)[nH]c(=O)n1C | > 100 | > 100 | > 100 | > 100 | > 100 | > 100 |  |  |  |  |  |  |
| CC(=O)OCC(=Cc1c(C)c(=O)[nH]c(=O)n1C)COC(C)=O | > 100 | > 100 | > 100 | > 100 | > 100 | > 100 |  |  |  |  |  |  |
| COc1nc(=O)n(C)c(CC(O)(COC(C)=O)COC(C)=O)c1C | > 100 | > 100 | > 100 | > 100 | > 100 | > 100 |  |  |  |  |  |  |
| COc1nc(CC(O)(COCc2ccccc2)COCc2ccccc2)c(C)c(OC)n1 | 4.22 | 3.67 | 3.84 | 3.48 | 6.08 | 2.42 |  |  |  |  |  |  |
| COc1nc(CC(O)(CO)CO)c(C)c(OC)n1 | > 100 | > 100 | > 100 | > 100 | > 100 | > 100 |  |  |  |  |  |  |
| COc1nc(CC(F)(COC(C)=O)COC(C)=O)c(C)c(OC)n1 | > 100 | > 100 | > 100 | > 100 | > 100 | > 100 |  |  |  |  |  |  |
| CC(=O)OCC(F)(COC(C)=O)Cc1c(C)c(=O)[nH]c(=O)n1C | > 100 | > 100 | > 100 | > 100 | > 100 | > 100 |  |  |  |  |  |  |
| Cc1c(C=C(CO)CO)n(C)c(=O)[nH]c1=O | > 100 | > 100 | > 100 | > 100 | > 100 | > 100 | inactive | Active | inactive | inactive | Active | Active |
| Cc1c(CC(O)(CO)CO)n(C)c(=O)[nH]c1=O | > 100 | > 100 | > 100 | > 100 | > 100 | > 100 |  |  |  |  |  |  |
